Measured values as given in patent US20050148627A1, “Benzopyran compounds for use in the treatment and prevention of inflammation related conditions” (priority 2003, published 2005).

SMILES | melting point
O=C(O)C1=Cc2cc3occ(-c4ccc(Br)cc4)c3cc2OC1C(F)(F)F (stereo not shown) [Example 921, 3-(4-bromophenyl)-6-(trifluoromethyl)-6H-furo[2,3-g]chromene-7-carboxylic acid] | > 250 °C
Cc1ccc(-c2c(Cl)ccc3c2C=C(C(=O)O)C(C(F)(F)F)O3)cc1 (stereo not shown) [Example 869, 6-Chloro-5-(4-methylphenyl)-2-(trifluoromethyl)-2H-chromene-3-carboxylic acid] | 218 to 220 °C
CCc1c(Cl)ccc2c1C=C(C(=O)O)C(C(F)(F)F)O2 (stereo not shown) [Example 873, 6-Chloro-5-ethyl-2-(trifluoromethyl)-2H-chromene-3-carboxylic acid] | 171.5 to 172.5 °C
CCc1cnc(Oc2cc3c(cc2Cl)C=C(C(=O)O)C(C(F)(F)F)O3)nc1 (stereo not shown) [Example 864, 6-Chloro-7-[(5-ethylpyrimidin-2-yl)oxy]-2-(trifluoromethyl)-2H-chromene-3-carboxylic acid] | 96.5 to 98 °C
O=C(O)C1=Cc2c(ccc(Cl)c2-c2ccccc2)OC1C(F)(F)F (stereo not shown) [Example 872, 6-Chloro-5-phenyl-2-(trifluoromethyl)-2H-chromene-3-carboxylic acid] | 229 to 231 °C
CCCc1ccc(Oc2ccc3c(c2)OC(C(F)(F)F)C(C(=O)O)=C3)cc1 (stereo not shown) [Example 713, 7-(4-Propylphenoxy)-2-(trifluoromethyl)-2H-chromene-3-carboxylic acid] | 143.5 to 146.5 °C
CC(F)(F)c1ccc2c(c1)C=C(C(=O)O)C(C(F)(F)F)O2 (stereo not shown) [Example 34d, 6-(1,1-difluoroethyl)-2-(trifluoromethyl)-2H-chromene-3-carboxylic acid] | 156 to 158 °C (dec.)
CCc1ccc(Oc2cc3c(cc2Cl)C=C(C(=O)O)[C@H](C(F)(F)F)O3)cc1 (single isomer, unassigned) [Example 931] | 130 to 131 °C
O=C(O)C1=Cc2c(ccc(Cl)c2-c2ccco2)OC1C(F)(F)F (stereo not shown) [Example 867, 6-Chloro-5-(2-furyl)-2-(trifluoromethyl)-2H-chromene-3-carboxylic acid] | 191 to 193 °C
Cc1cccc(-c2c(Cl)ccc3c2C=C(C(=O)O)C(C(F)(F)F)O3)c1 (stereo not shown) [Example 870, 6-Chloro-5-(3-methylphenyl)-2-(trifluoromethyl)-2H-chromene-3-carboxylic acid] | 222.5 to 224 °C
